Source: patent US7550478B2, “Tyrosine kinase inhibitors” (Merck & Co. Inc., priority 2006, dated 2009)
pIC50: −log10 of the molar value.

Target: T1, human c-Met (Homo sapiens, UniProt P08581)
T1 construct: Recombinant GST-tagged cytosolic domains of human c-Met; 6xHis; made in house; host or cells: Sf9 or Sf21 insect cells (baculovirus, Pharmingen vector pGcGHLT-A, B or C)
Experiment: In vitro kinase assay (homogeneous time-resolved tyrosine kinase assay, HTRF) for c-Met
Format: biochemical
Settings: recombinant GST-tagged cytosolic domain of c-Met, 0.2 nM c-Met, 50 μM MgATP, 80 min at room temperature
Source text: Recombinant GST-tagged cytosolic domains of human c-Met and other receptor tyrosine kinases including mouse c-Met, human Ron, KDR, IGFR, EGFR, FGFR, Mer, TrkA and Tie2 are used to determine whether the compounds of the instant invention modulate the enzymatic activities of these kinases.
Soluble recombinant GST-tagged cytosolic domains of c-Met and other receptor tyrosine kinases are expressed in a baculovirus system (Pharmingen) according to a protocol recommended by the manufacturer. The c-DNA encoding each cytosolic domain is subcloned into a baculovirus expression vector (pGcGHLT-A, B or C, Pharmingen) containing an in frame 6× histidine tag and a GST tag. […] The protein concentrations of the fusion proteins are determined using Coomassie Plus Protein Assay (Pierce) with BSA as standard.
The kinase activities of c-Met and other kinases are measured using a modified version of the homogeneous time-resolved tyrosine kinase assay described by Park et al. (1999, Anal. Biochem. 269:94-104).
The procedure for determining the potency of a compound to inhibit c-Met kinase comprises the following steps: • 1. […] Read HTRF signals on a Victor reader (PerkinElmer) in HTRF mode after 60 min. • 6. IC50 is determined by fitting the observed relationship between compound concentration and HTRF signal with a 4-parameter logistic equation. […]

T1 sequence (P08581 956-1390 limits assumed): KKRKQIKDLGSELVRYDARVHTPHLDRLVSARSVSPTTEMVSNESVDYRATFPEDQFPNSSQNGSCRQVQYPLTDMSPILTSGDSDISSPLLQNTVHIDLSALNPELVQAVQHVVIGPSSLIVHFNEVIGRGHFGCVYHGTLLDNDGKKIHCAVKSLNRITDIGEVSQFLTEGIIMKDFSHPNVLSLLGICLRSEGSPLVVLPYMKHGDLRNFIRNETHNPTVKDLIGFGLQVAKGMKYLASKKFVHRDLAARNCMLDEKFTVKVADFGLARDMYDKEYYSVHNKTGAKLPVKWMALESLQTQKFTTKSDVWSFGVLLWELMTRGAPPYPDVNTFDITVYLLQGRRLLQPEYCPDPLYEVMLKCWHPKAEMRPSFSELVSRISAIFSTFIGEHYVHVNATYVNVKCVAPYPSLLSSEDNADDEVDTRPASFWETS

pIC50: ≥ 4.30
Compound: O=c1c2cc(-c3ccccc3)cnc2ccc2cccc(Br)c12 [Compound 3, 6-bromo-3-phenyl-5H-benzo[4,5]cyclohepta[1,2-b]pyridin-5-one]
